Solubility in methanol and IC50 data for one molecule are collected here from patent publication US11186533B2, “Chalcone compound and preparation method thereof” (SOUTH CHINA BOTANICAL GARDEN, CHINESE ACADEMY OF SCIENCES, priority 2018, dated 2021).

A word on the IC50: it is the concentration needed to halve the response being measured.

One data set can be described thus: Solubility in methanol. The data set is classed as physicochemical.
A short description of data set [1]: DPPH radical scavenging assay. The conditions noted are these: 0.2 mM DPPH in absolute ethanol, dark, room temperature, 30 minutes, absorbance at 517 nm; read-out: IC50 value against DPPH radicals. As for the experimental part: DPPH is a stable free radical. When a free radical scavenger is present, light absorption of DPPH will be reduced when the single electron is scavenged, which allows to evaluate free radical scavenging ability of the substance and accordingly determine antioxidant ability thereof. The DPPH radical scavenging ability of the compound 2,2′,4,4′-tetrahydroxy-3-(2″-hydroxy-3″-methylbutyl-3″-alkenyl)chalcone was measured through the DPPH radical scavenging assay, so as to evaluate the antioxidant ability of the compound. The assay comprised the following steps:
1,1-Diphenyl-2-picrylhydrazyl (DPPH) was dissolved in absolute ethanol to obtain a solution with a concentration of 0.2 mM. The compound 2,2′,4,4′-tetrahydroxy-3-(2″-hydroxy-3″-methylbutyl-3″-alkenyl)chalcone was dissolved in absolute ethanol. 80 μL of the ethanol solution of 2,2′,4,4′-tetrahydroxy-3-(2″-hydroxy-3″-methylbutyl-3″-alkenyl)chalcone and 160 μL of the 0.2 mM DPPH ethanol solution were mixed and the mixture was placed in dark at room temperature for 30 minutes. Then, light absorbance at 517 nm was measured using a microplate reader (SpectraMax 190, Molecular Devices, USA).
Background: Loss of DPPH colour is used to gauge radical scavenging.

As to `C=C(C)C(O)Cc1c(O)ccc(C(=O)/C=C/c2ccc(O)cc2O)c1O` (centres unmarked) [compound 1, 2,2′,4,4′-tetrahydroxy-3-(2″-hydroxy-3″-methylbutyl-3″-alkenyl)chalcone], the solubility in methanol result in the data set “Solubility in methanol” is “easily soluble in methanol”. In data set [1], the IC50 is 21.6 µM.
